The values that follow come from ChEMBL document CHEMBL5331052, “Discovery of a novel water-soluble, rapid-release triptolide prodrug with improved drug-like properties and high efficacy in human acute myeloid leukemia” (Eur J Med Chem, 2022).

Series [1] in a line: Prodrug conversion in Sprague-Dawley rat plasma assessed as triptolide release at 500 ng/ml measured after 8 hrs by UPLC-MS/MS analysis. It is filed as ADME, cell-free.
The nature of series [2]: Prodrug conversion in Sprague-Dawley rat plasma assessed as triptolide release at 500 ng/ml measured after 1.5 hrs by UPLC-MS/MS analysis. It is filed as ADME, cell-free.
Series [3] concerns MV4-11. Kind of series: Antitumor activity against human MV4-11 cells xenografted in BALB/c nude mouse assessed as tumor growth inhibition at 1 mg/kg, po measured once every 2 days for 20 days relative to control. Type of series: functional. To be noted: MV4-11, 480 h, time 20 day, read-out: TGI.
Series [4] relates to MV4-11. Kind of series: Antitumor activity against human MV4-11 cells xenografted in BALB/c nude mouse assessed as tumor growth inhibition at 0.5 mg/kg, po measured once every 2 days for 20 days relative to control. The conditions noted are these: MV4-11, 480 h, time 20 day, read-out: TGI. It is filed as functional. (A xenograft is tissue or cells of one species grown in another, often human tumour cells in immunodeficient mice.)

Series [5] is described as follows: Aqueous solubility of compound at 1 to 10 mg/ml by HPLC analysis. It is filed as physicochemical. The conditions noted are these: water; dose 1-10 mg/ml.
A short description of series [6]: Chemical stability of the compound in water assessed as parent compound remaining at 2 mg/ml measured immediately by HPLC analysis. The conditions noted are these: read-out: Stability. Type of series: physicochemical.
A short description of series [7]: Prodrug conversion in Sprague-Dawley rat plasma assessed as triptolide release at 50 ug/ml measured after 30 mins by HPLC analysis. It is filed as ADME, cell-free. To be noted: 0.5 h, dose 50 µg/ml.
Series [8] can be described thus: Chemical stability of the compound in water assessed as parent compound remaining at 2 mg/ml measured after 4 hrs by HPLC analysis. The conditions noted are these: read-out: Stability. It is filed as physicochemical.

For the compound `CC(C)[C@]12O[C@H]1[C@@H]1O[C@]13[C@]1(O[C@H]1C[C@H]1C4=C(CC[C@@]13C)C(=O)OC4)[C@@H]2OCOP(=O)([O-])[O-].[Na+].[Na+]` [MINNELIDE], the Drug metabolism result in series [1] is “Metabolite_Detected”.

On to `CC(C)[C@]12O[C@H]1[C@@H]1O[C@]13[C@]1(O[C@H]1C[C@H]1C4=C(CC[C@@]13C)C(=O)OC4)[C@@H]2OC(=O)CCC(=O)[O-].[Na+]` [OMTRIPTOLIDE SODIUM], for which the Drug metabolism entry in series [2] was “Metabolite_Detected”.

For `CCc1nc(C(N)=O)c(Nc2ccc(N3CCC(N4CCN(C)CC4)CC3)c(OC)c2)nc1NC1CCOCC1` [GILTERITINIB], the inhibition in vivo at 1 mg/kg in the series on MV4-11 [3] is 72%. In addition, the inhibition in vivo at 0.5 mg/kg in the series on MV4-11 [4] was determined as 48.3%.

As a reminder, the solubility is how much of the substance goes into solution per volume. A lower solubility goes with little dissolved substance. Compound `CC(C)[C@]12O[C@H]1[C@@H]1O[C@]13[C@]1(O[C@H]1C[C@H]1C4=C(CC[C@@]13C)C(=O)OC4)[C@@H]2OC(=O)COC(=O)CN1CCN(C)CC1.Cl` had a solubility in series [5] of 3820 µg/mL. Besides, the remaining at 0 h, 2 mg/ml in series [6] is 96.8%. Also, the Drug metabolism entry in series [7] is “Metabolite_Detected”. Besides, the remaining at 4 h, 2 mg/ml in series [8] was 96.7%.
